One compound from patent US7465725B2, “Pyrimidine compounds” (Synta Pharmaceuticals Corp., priority 2001, dated 2008) can be followed below.

Experiment [1] relates to DNBS-induced distal colitis. Nature of the experiment: Dinitrobenzene sulfonic acid-induced inflammatory bowel syndrome model rats. As to conditions: oral, 24 and 2 h before DNBS, then daily for 5 days; relative to vehicle+DNBS net increase. The class given is in vivo, Wistar derived rats. How it is done: Treatment of Crohn's disease in dinitrobenzene suifonic acid-induced inflammatory bowel syndrome model rats: Wistar derived male or female rats weighing 200±20 g and fasted for 24 hours were used. Distal colitis was induced by intra-colonic instillation of 2,4-dinitrobenzene sulfonic acid (DNBS, 25 mg in 0.5 mL ethanol 30%) after which air (2 mL) was gently injected through the cannula to ensure that the solution remained in the colon. A test compound and/or vehicle was administered orally 24 and 2 hours before DNBS instillation and then daily for 5 days. One control group was similarly treated with vehicle alone while the other is treated with vehicle plus DNBS. The animals were sacrificed 24 hours after the final dose of test compound administration and each colon was removed and weighed. Colon-to-body weight ratio was then calculated for each animal according to the formula: Colon (g)/BW×100. The “Net” increase in ratio of Vehicle-control+DNBS group relative to Vehicle-control group was used as a base for comparison with test substance treated groups and expressed as “% Deduction.” Pyriridine compounds of this invention (e.g., Compound 12) reproducibly had about 30% deduction. A 30% or more reduction in colon-to-body weight ratio, relative to the vehicle treated eontrol group, was considered significant.

The test system of experiment [2] is CD4+ CD45Rbhigh T cell-reconstituted colitis. Nature of the experiment: CD4+ CD45Rbhigh T cell-reconstituted SCID colitis model mice. The class given is in vivo, C.B-17 SCID mice. How it is done: Treatment of Crohn's disease in CD4^+ CD45Rb^high T cell-reconstituted SCID colitis model mice: Spleen cells were prepared from normal female BALB/c mice. For cell purification, the following anti-mouse antibodies were used to label non-CD4^+ T cells: B220 (RA3-6B2), CD11b (M1/70), and CD8α (53-6.72). All antibodies were obtained from BioSource (Camarillo, Calif.). M450 anti-rat IgG-coated magnetic beads (Dynal, Oslo, Norway) were used to bind the antibodies and negative selection was accomplished using an MPC-1 magnetic concentrator. The enriched CD4^+ cells were then labeled for cell sorting with FITC-conjugated CD45RB (16A, Pharmingen, San Diego, Calif.) and PE-conjugated CD4 (CT-CD4, Caltag, Burlingame, Calif.). CD4^+ CD45Rb^high cells were operationally defined as the upper 40% of CD45Rb-staining CD4^+ cells and sorted under sterile conditions by flow cytometry. Harvested cells were resuspended at 4×10^6/mL in PBS and injected 100 μL intraperitoneally into female C.B-17 SCID mice. Pyrimidine compounds of this invention (e.g., Compound 12) and/or vehicle was orally administered once a day, 5 days per week, starting the day following the transfer. The transplanted SCID mice were weighed weekly and their clinical condition was monitored. Colon tissue samples were fixed in 10% buffered formalin and embedded in paraffin. Sections (4 μm) collected from ascending, transverse, and descending colon were cut and stained with hematoxylin and eosin. The severity of colitis was determined based on histological examination of the distal colon sections, whereby the extent of colonic inflammation was graded on a scale of 0-3 in each of four criteria: crypt elongation, cell infiltration, depletion of goblet cells, and the number of crypt abscesses. LP lymphocytes were isolated from freshly obtained colonic specimens. After removal of […] patches, the colon was washed in Ca/Mg-free HBSS, cut into 0.5 cm pieces and incubated twice in HBSS containing EDTA (0.75 mM), DTT (1 mM), and antibiotics (amphotericin 2.5 μg/mL, gentamicin 50 μg/mL from Sigma) at 37° C. for 15 min. Next, the tissue was-digested further in RPMI containing 0.5 mg/mL collagenase D, 0.01 mg/mL DNase I (Boehringer Manheim), and antibiotics at 37° C. LP cells were then layered on a 40-100% Percoll gradient (Pharmacia, Uppsala, Sweden), and lymphocyte-enriched populations were isolated from the cells at the 40-100% interface. To measure cytokine production, 48-well plates were coated with 10 μg/mL murine anti-CD3ε antibody (145-2C11) in carbonate buffer (PH 9.6) overnight at 4° C. […] Murine IFNγ was measured using an ELISA kit from Endogen (Cambridge, Mass.), according to the manufacturer's instructions.

Another experiment concerns adjuvant arthritis. Briefly: Treatment of adjuvant arthritis in rats. The class given is in vivo, female Lewis rats. As to conditions: oral, once a day for 12 days, dose-dependent.

On to `Cc1cccc(C=NNc2cc(N3CCOCC3)nc(OCCc3ccccn3)n2)c1` [Compound 12, N-(3-methyl-benzylidene)-N′-[6-morpholin-4-yl-2-(2-pyridin-2-yl-ethoxy)-pyrimidin-4-yl]-hydrazine], for which the “% Deduction (colon-to-body weight ratio)” value in experiment [1] is “about 30%”. The “IFNγ production by LP cells” value in experiment [2] (ex vivo LP cells from treated mice, anti-CD3 and anti-CD28 antibody, 48 h, ELISA) was “greatly diminished the production”. Besides, the “colonic inflammation (histological analysis), suppressive effect” value in experiment [2] (oral, dose of 10 mg/kg) is given as “substantial reduction”. The “colonic inflammation (histological analysis)” value in experiment [2] (oral, once a day, 5 days per week, versus vehicle control) is “reduced colonic inflammation”. Further, the colon-to-body weight ratio result in experiment [2] (oral, consistent with histological score) is recorded as “attenuation”. In the experiment with adjuvant arthritis, the development of polyarthritis result is on record as “delayed the development of polyarthritis”. The arthritic score entry in the experiment with adjuvant arthritis (repeated four times) is “reduced the arthritic score”.
